Reference: ChEMBL document CHEMBL4402592, “Targeting Endoplasmic Reticulum α-Glucosidase I with a Single-Dose Iminosugar Treatment Protects against Lethal Influenza and Dengue Virus Infections” (J Med Chem, 2020)
The source made the active and inactive calls. The rule behind the calls is not given here.

What was measured:
Influenza A virus [1] = test: Antiviral activity against Influenza A virus (A/Texas/36/1991(H1N1)) infected in BALB/c mouse assessed as animal survival at 750 mg/kg, po administered via gavage as single dose at 8 hrs post infection (reference value: 0%); format: functional
Influenza A virus [2] = test: Antiviral activity against Influenza A virus (A/Texas/36/1991(H1N1)) infected in BALB/c mouse assessed as animal survival at 500 mg/kg, po administered via gavage as single dose at 8 hrs post infection (reference value: 0%); format: functional
Influenza A virus [3] = test: Antiviral activity against Influenza A virus (A/Texas/36/1991(H1N1)) infected in BALB/c mouse assessed as animal survival at 250 mg/kg, po administered via gavage as single dose at 8 hrs post infection (reference value: 0%); format: functional
Influenza A virus [4] = test: Antiviral activity against Influenza A virus (A/Texas/36/1991(H1N1)) infected in BALB/c mouse assessed as animal survival at 750 mg/kg, po administered via gavage as two doses at 8 and 32 hrs post infection (reference value: 0%); format: functional
Influenza A virus [5] = test: Antiviral activity against Influenza A virus (A/Texas/36/1991(H1N1)) infected in BALB/c mouse assessed as animal survival at 250 mg/kg, po administered via gavage as two doses at 8 and 32 hrs post infection (reference value: 0%); format: functional
Influenza A virus [6] = test: Antiviral activity against Influenza A virus (A/Texas/36/1991(H1N1)) infected in BALB/c mouse assessed as median death time at 750 mg/kg, po administered via gavage as single dose at 8 hrs post infection; format: functional
Influenza A virus [7] = test: Antiviral activity against Influenza A virus (A/Texas/36/1991(H1N1)) infected in BALB/c mouse assessed as median death time at 500 mg/kg, po administered via gavage as single dose at 8 hrs post infection; format: functional
Influenza A virus [8] = test: Antiviral activity against Influenza A virus (A/Texas/36/1991(H1N1)) infected in BALB/c mouse assessed as median death time at 500 mg/kg, po administered via gavage as two doses at 8 hrs and 32 hrs post infection (reference value: 9 days); format: functional
Influenza A virus [9] = test: Antiviral activity against Influenza A virus (A/Texas/36/1991(H1N1)) infected in BALB/c mouse assessed as median death time at 500 mg/kg, po administered via gavage as three dosed at 8, 32 and 56 hrs post infection (reference value: 8 days); format: functional
Influenza A virus [10] = test: Antiviral activity against Influenza A virus (A/Texas/36/1991(H1N1)) infected in BALB/c mouse assessed as median death time at 750 mg/kg, po administered via gavage as single dose at 24 hrs post infection (reference value: 8.5 days); format: functional
dengue virus type 2 [11] = test: Antiviral activity against Dengue virus 2 S221 infected in DENV antibody dependent enhancement AG129 mouse model assessed as animal survival at 250 mg/kg, po administered via gavage as two doses at 8 and 24 hrs post infection (reference value: 4%); format: functional
dengue virus type 2 [12] = test: (§1) Antiviral activity against Dengue virus 2 S221 infected in DENV antibody dependent enhancement AG129 mouse model assessed as reduction in KC-GRO level at 750 mg/kg, po administered via gavage as single dose at 36 hrs post infection measured at 60 hrs post-infection by electrochemiluminescence based method; format: functional, organism-based
dengue virus type 2 [13] = test: as §1, with “IL-12/IL-23p40” for “KC-GRO”, “two doses” for “single dose”, “36 hrs and 52” for “36”; format: functional, organism-based
dengue virus type 2 [14] = test: as §1, with “IFN-gamma” for “KC-GRO”, “two doses” for “single dose”, “36 hrs and 52” for “36”, “72” for “60”; format: functional, organism-based
Mus musculus [15] = test: In vivo inhibition of ERGlu2 in BALB/c mouse assessed as increase in mono-glucosylated FOS level in serum at 20 mg/kg, po administered via gavage starting at 8 hrs post-infection and continuing tid for 5 days and measured at 8 hrs post-final dose by NP-HPLC analysis; format: functional, organism-based
Mus musculus [16] = test: In vivo inhibition of ERGlu1 in BALB/c mouse assessed as increase in tri-glucosylated FOS level in lung at >250 mg/kg, po administered via gavage as single dose at 8 hrs post-infection and measured at 8 hrs post dose by NP-HPLC analysis; format: functional, organism-based
Mus musculus [17] = test: In vivo inhibition of ERGlu1 in BALB/c mouse assessed as increase in tri-glucosylated FOS level in serum at 750 mg/kg, po administered via gavage as single dose and measured after 16 hrs by NP-HPLC analysis; format: functional, organism-based
Mus musculus [18] = test: In vivo inhibition of ERGlu1 in BALB/c mouse assessed as increase in tri-glucosylated FOS level in spleen at 750 mg/kg, po administered via gavage as single dose and measured after 16 hrs by NP-HPLC analysis; format: functional, organism-based
Cynomolgus monkey = test: In vivo inhibition of ERGlu1 in cynomolgus monkey assessed as increase in tri-glucosylated FOS at level in serum 128 to 258 mg/kg, po administered via gavage as single dose measured after 8 to 72 hrs by NP-HPLC analysis; format: functional, organism-based; conditions: Macaca fascicularis
dengue virus type 2 [19] = test: Antiviral activity against Dengue virus 2 S221 infected in DENV antibody dependent enhancement AG129 mouse model assessed as log10 reduction in viremia by measuring foci of BHK21 cells containing DENV E at 750 mg/kg, po administered via gavage as single dose at 36 hrs post infection measured after titration of compound treated infected animal serum with BHK21 cells by TrueBlue staining based focus forming assay; format: functional
dengue virus type 2 [20] = test: Antiviral activity against Dengue virus 2 S221 infected in DENV antibody dependent enhancement AG129 mouse model assessed as reduction in viremia at 750 mg/kg, po administered via gavage as two doses at 36 hrs and 52 hrs post infection by qRT-PCR analysis; format: functional, organism-based
dengue virus type 2 [21] = test: as §1, with “TNF-lapha” for “KC-GRO”, “two doses” for “single dose”, “36 hrs and 52” for “36”; format: functional, organism-based
dengue virus type 2 [22] = test: as §1, with “TNF-alpha” for “KC-GRO”, “two doses” for “single dose”, “36 hrs and 52” for “36”, “72” for “60”; format: functional, organism-based
Mus musculus [23] = test: In vivo inhibition of ERGlu1 in BALB/c mouse assessed as increase in mono-glucosylated FOS level in serum at 100 to 1000 mg/kg, po administered via gavage at 8 hrs post-infection and measured at 8 hrs post-dose by NP-HPLC analysis; format: functional, organism-based
Mus musculus [24] = test: In vivo inhibition of ERGlu2 in BALB/c mouse assessed as increase in mono-glucosylated FOS level in spleen at 100 mg/kg, po administered via gavage starting at 8 hrs post-infection and continuing tid for 5 days and measured at 8 hrs post-final dose by NP-HPLC analysis; format: functional, organism-based
Mus musculus [25] = test: In vivo inhibition of ERGlu2 in BALB/c mouse assessed as increase in mono-glucosylated FOS level in lung at 100 mg/kg, po administered via gavage starting at 8 hrs post-infection and continuing tid for 5 days and measured at 8 hrs post-final dose by NP-HPLC analysis; format: functional, organism-based
Mus musculus [26] = test: In vivo inhibition of ERGlu2 in BALB/c mouse assessed as increase in mono-glucosylated FOS level in spleen at 20 mg/kg, po administered via gavage starting at 8 hrs post-infection and continuing tid for 5 days and measured at 8 hrs post-final dose by NP-HPLC analysis; format: functional, organism-based

Compound `COCCCCCCCCCN1C[C@H](O)[C@@H](O)[C@H](O)[C@H]1CO.Cl` has a survival at 750 mg/kg (Influenza A virus [1]) of 80%, a survival at 500 mg/kg (Influenza A virus [2]) of 50% and a survival at 250 mg/kg (Influenza A virus [3]) of 30%. The survival at 750 mg/kg (Influenza A virus [4]) was 100%, the survival at 250 mg/kg (Influenza A virus [5]) was 60% and the Time (Influenza A virus [6]) was >14 days. For the same compound, the Time (Influenza A virus [7]) was 12.5 days, the Time (Influenza A virus [8]) was >14 days and the Time (Influenza A virus [9]) was >14 days. The Time (Influenza A virus [10]) was 10 days, the survival at 250 mg/kg (dengue virus type 2 [11]) was 86% and the Activity (dengue virus type 2 [12]) was “Active”. For the same compound, the Activity (dengue virus type 2 [13]) was “Active”, the Activity (dengue virus type 2 [14]) was “Active” and the inhibition (Mus musculus [15]) was “Active”. For the same compound, the inhibition (Mus musculus [16]) was “Active”, the inhibition (Mus musculus [17]) was “Active” and the inhibition (Mus musculus [18]) was “Active”. For the same compound, the inhibition (Cynomolgus monkey) was “Active”, the “log(activity)” value (dengue virus type 2 [19]) was >1 and the Activity (dengue virus type 2 [20]) was “Active”. The Activity (dengue virus type 2 [21]) was “Active”, the Activity (dengue virus type 2 [22]) was “Active” and the inhibition (Mus musculus [23]) was “Active”. The inhibition (Mus musculus [24]) was “Active”, the inhibition (Mus musculus [25]) was “Active” and the inhibition (Mus musculus [26]) was “Active”.
